The values below come from US12295925B2, “Treatment of neurofibromatosis type 1 (NF1) associated plexiform neurofibromas (PN) in pediatric patients with mirdametinib” (SpringWorks Therapeutics, Inc., priority 2022, dated 2025).

The test system of this data set is patients >2 and <25 years with brain cancer. Kind of data set: Phase I/II trial of single agent mirdametinib in children, adolescents and young adults with brain cancer. The data set is classed as in vivo, human. The method, then: Example 1: Phase I/II Evaluation of Single Agent Mirdametinib, a Brain-Penetrant MEK1/2 Inhibitor, for the Treatment of Children, Adolescents, and Young Adults with Brain Cancer A multi-arm phase I/II trial of mirdametinib is to be conducted in patients>2 and <25 years with brain cancer. Phase I requires participants have no prior exposure to MEK inhibitors and recurrent/progressive disease with biopsy-proven evidence of MAPK pathway activation. Three escalating dose levels (2 mg/m^2/dose BID, 2.5 mg/m^2/dose BID and 3 mg/m^2/dose BID) are planned using a rolling 6 design. The median age enrolled in the study is 10 years old (3-21).

Molecules are shown by their SMILES.

Regarding `O=C(NOC[C@H](O)CO)c1ccc(F)c(F)c1Nc1ccc(I)cc1F` (single isomer, unassigned) [mirdametinib], the dose-limiting toxicities entry (all three dose levels (2, 2.5 and 3 mg/m^2/dose BID), rolling 6 design, patients with brain cancer, median age 10 years) is recorded as “No dose-limiting toxicities”. For the same compound, under “dosed continuously in patients with brain cancer”, the “clinical activity (overall assessment)” value was “clinically promising”.
